{"source": "patent US6525001B1", "about": "“Substituted pyrimidine and pyridine herbicides” (Mid-American Commercialization Corporation, priority 1997, dated 2003)", "type_in_all_cases": "in vivo", "parameters_in_all_cases": "key: 0 is no effect; 10 is complete control", "key": {"[1]": {"test_system": "bedstraw (Galium aparine)", "test": "Test B pre-/postemergence", "conditions": "for Plant response rating, Bedstraw: Preemergence; for Bedstraw plant response rating: Postemergence", "method_in_brief": "(§1)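 Compounds in a surfactant-containing, non-phytotoxic solvent blend are applied to freshly planted seed (preemergence) and, concurrently, to seedlings of 2 to 18 cm at 1–4 leaves (postemergence). Plants stay in the greenhouse twelve to sixteen days and are then scored visually from 0 (no effect) to 10 (complete control).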"}, "[2]": {"test_system": "blackgrass (Alopecurus myosuroides)", "test": "Test B pre-/postemergence", "conditions": "for Plant response rating, Blackgrass: Preemergence; for Blackgrass plant response rating: Postemergence", "method_in_brief": "as §1"}, "[3]": {"test_system": "broadleaf signalgrass (Brachiaria decumbens)", "test": "Test B pre-/postemergence", "method_in_brief": "as §1"}, "[4]": {"test_system": "cocklebur (Xanthium strumarium)", "test": "Test B pre-/postemergence", "conditions": "for Plant response rating, Cocklebur: Preemergence; for Cocklebur plant response rating: Postemergence", "method_in_brief": "as §1"}, "corn (Zea mays)": {"test_system": "corn (Zea mays)", "test": "Test B pre-/postemergence", "conditions": "for Plant response rating, Corn: Preemergence; for Corn plant response rating: Postemergence", "method_in_brief": "as §1"}, "[5]": {"test_system": "crabgrass (Digitaria sanguinalis)", "test": "Test B pre-/postemergence", "conditions": "for Plant response rating, Crabgrass: Preemergence; for Crabgrass plant response rating: Postemergence", "method_in_brief": "as §1"}, "[6]": {"test_system": "giant foxtail (Setaria faberii)", "test": "Test B pre-/postemergence", "conditions": "for Plant response rating, Giant foxtail: Preemergence; for Giant foxtail plant response rating: Postemergence", "method_in_brief": "as §1"}, "[7]": {"test_system": "momingglory (Ipomoea hederacea)", "test": "Test B pre-/postemergence", "conditions": "for Plant response rating, Morningglory: Preemergence; for Morningglory plant response rating: Postemergence", "method_in_brief": "as §1"}, "[8]": {"test_system": "pigweed (Amaranthus retroflexus)", "test": "Test B pre-/postemergence", "conditions": "for Plant response rating, Redroot pigweed: Preemergence; for Redroot pigweed plant response rating: Postemergence", "method_in_brief": "as §1"}, "[9]": {"test_system": "purple nutsedge (Cyperus rotundus)", "test": "Test B pre-/postemergence", "conditions": "for Plant response rating, Nutsedge: Preemergence", "method_in_brief": "as §1"}, "rape (Brassica napus)": {"test_system": "rape (Brassica napus)", "test": "Test B pre-/postemergence", "conditions": "for Plant response rating, Rape: Preemergence; for Rape plant response rating: Postemergence", "method_in_brief": "as §1"}, "soybean (Glycine max)": {"test_system": "soybean (Glycine max)", "test": "Test B pre-/postemergence", "conditions": "for Plant response rating, Soybean: Preemergence; for Soybean plant response rating: Postemergence", "method_in_brief": "as §1"}, "[10]": {"test_system": "sugar beet (Beta vulgaris)", "test": "Test B pre-/postemergence", "conditions": "for Plant response rating, Sugarbeets: Preemergence; for Sugarbeets plant response rating: Postemergence", "method_in_brief": "as §1"}, "[11]": {"test_system": "velvetleaf (Abutilon theophrasti)", "test": "Test B pre-/postemergence", "conditions": "for Velvetleaf plant response rating: Postemergence", "method_in_brief": "as §1"}, "[12]": {"test_system": "wheat (Triticum aestivum)", "test": "Test B pre-/postemergence", "conditions": "for Plant response rating, Wheat: Preemergence; for Wheat plant response rating: Postemergence", "method_in_brief": "as §1"}, "wild oat (Avena fatua)": {"test_system": "wild oat (Avena fatua)", "test": "Test B pre-/postemergence", "conditions": "for Plant response rating, Wild oats: Preemergence; for Wild oats plant response rating: Postemergence", "method_in_brief": "as §1"}, "[13]": {"test_system": "bamyardgrass (Echinochloa crus-galli)", "test": "Test B flood test", "method_in_brief": "(§2)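 Read-out is a visual response score from 0 (no effect) to 10 (complete control), assigned by comparison with untreated controls. Treatment was applied at the 2-leaf stage, and plants stayed in the greenhouse for twelve to sixteen days before scoring.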"}, "[14]": {"test_system": "duck salad (Heteranthera limosa)", "test": "Test B flood test", "method_in_brief": "as §2"}, "rice (Oryza sativa)": {"test_system": "rice (Oryza sativa)", "test": "Test B flood test", "method_in_brief": "as §2"}, "[15]": {"test_system": "smallflower flatsedge (Cyperus difformis)", "test": "Test B flood test", "method_in_brief": "as §2"}, "[16]": {"conditions": "Rate 62 g/ha, Postemergence (flood test)"}, "[17]": {"conditions": "Rate 125 g/ha, Postemergence section (flood test species)"}}, "data": [{"smiles": "CCc1cnc(-n2ccc(C(F)(F)F)n2)nc1C(=O)c1cccc(C(F)(F)F)c1", "note": "[Compound 69]", "values": [{"measurement": "Plant response rating, Bedstraw", "setting": "[1]; Rate 62 g/ha, scale of 0 to 10", "result": 7}, {"measurement": "Bedstraw plant response rating", "setting": "[1]; Rate 62 g/ha", "result": 9}, {"measurement": "Bedstraw plant response rating", "setting": "[1]; Rate 125 g/ha", "result": 9}, {"measurement": "Plant response rating, Bedstraw", "setting": "[1]; Rate 125 g/ha", "result": 9}, {"measurement": "Plant response rating, Blackgrass", "setting": "[2]; Rate 62 g/ha, scale of 0 to 10", "result": 1}, {"measurement": "Blackgrass plant response rating", "setting": "[2]; Rate 62 g/ha", "result": 2}, {"measurement": "Blackgrass plant response rating", "setting": "[2]; Rate 125 g/ha", "result": 3}, {"measurement": "Plant response rating, Blackgrass", "setting": "[2]; Rate 125 g/ha", "result": 4}, {"measurement": "B. signalgrass plant response rating", "setting": "[3]; Rate 62 g/ha, Postemergence", "result": 3}, {"measurement": "B. signalgrass plant response rating", "setting": "[3]; Rate 62 g/ha, Preemergence", "result": 8}, {"measurement": "B. signalgrass plant response rating", "setting": "[3]; Rate 125 g/ha, Postemergence", "result": 3}, {"measurement": "Plant response rating, B. signalgrass", "setting": "[3]; Rate 125 g/ha, Preemergence", "result": 9}, {"measurement": "Plant response rating, Cocklebur", "setting": "[4]; Rate 62 g/ha, scale of 0 to 10", "result": 0}, {"measurement": "Cocklebur plant response rating", "setting": "[4]; Rate 62 g/ha", "result": 8}, {"measurement": "Cocklebur plant response rating", "setting": "[4]; Rate 125 g/ha", "result": 8}, {"measurement": "Plant response rating, Cocklebur", "setting": "[4]; Rate 125 g/ha", "result": 2}, {"measurement": "Plant response rating, Corn", "setting": "corn (Zea mays); Rate 62 g/ha, scale of 0 to 10", "result": 0}, {"measurement": "Corn plant response rating", "setting": "corn (Zea mays); Rate 62 g/ha", "result": 2}, {"measurement": "Corn plant response rating", "setting": "corn (Zea mays); Rate 125 g/ha", "result": 2}, {"measurement": "Plant response rating, Corn", "setting": "corn (Zea mays); Rate 125 g/ha", "result": 0}, {"measurement": "Plant response rating, Crabgrass", "setting": "[5]; Rate 62 g/ha, scale of 0 to 10", "result": 6}, {"measurement": "Crabgrass plant response rating", "setting": "[5]; Rate 62 g/ha", "result": 3}, {"measurement": "Crabgrass plant response rating", "setting": "[5]; Rate 125 g/ha", "result": 4}, {"measurement": "Plant response rating, Crabgrass", "setting": "[5]; Rate 125 g/ha", "result": 9}, {"measurement": "Plant response rating, Giant foxtail", "setting": "[6]; Rate 62 g/ha, scale of 0 to 10", "result": 4}, {"measurement": "Giant foxtail plant response rating", "setting": "[6]; Rate 62 g/ha", "result": 2}, {"measurement": "Giant foxtail plant response rating", "setting": "[6]; Rate 125 g/ha", "result": 3}, {"measurement": "Plant response rating, Giant foxtail", "setting": "[6]; Rate 125 g/ha", "result": 8}, {"measurement": "Plant response rating, Morningglory", "setting": "[7]; Rate 62 g/ha, scale of 0 to 10", "result": 8}, {"measurement": "Morningglory plant response rating", "setting": "[7]; Rate 62 g/ha", "result": 9}, {"measurement": "Morningglory plant response rating", "setting": "[7]; Rate 125 g/ha", "result": 10}, {"measurement": "Plant response rating, Morningglory", "setting": "[7]; Rate 125 g/ha", "result": 8}, {"measurement": "Plant response rating, Redroot pigweed", "setting": "[8]; Rate 62 g/ha, scale of 0 to 10", "result": 8}, {"measurement": "Redroot pigweed plant response rating", "setting": "[8]; Rate 62 g/ha", "result": 10}, {"measurement": "Redroot pigweed plant response rating", "setting": "[8]; Rate 125 g/ha", "result": 10}, {"measurement": "Plant response rating, Redroot pigweed", "setting": "[8]; Rate 125 g/ha", "result": 10}, {"measurement": "Plant response rating, Nutsedge", "setting": "[9]; Rate 62 g/ha, scale of 0 to 10", "result": 0}, {"measurement": "Nutsedge plant response rating", "setting": "[9]; Rate 62 g/ha, Postemergence", "result": 2}, {"measurement": "Plant response rating, Nutsedge", "setting": "[9]; Rate 125 g/ha", "result": 0}, {"measurement": "Plant response rating, Rape", "setting": "rape (Brassica napus); Rate 62 g/ha, scale of 0 to 10", "result": 7}, {"measurement": "Rape plant response rating", "setting": "rape (Brassica napus); Rate 62 g/ha", "result": 6}, {"measurement": "Rape plant response rating", "setting": "rape (Brassica napus); Rate 125 g/ha", "result": 8}, {"measurement": "Plant response rating, Rape", "setting": "rape (Brassica napus); Rate 125 g/ha", "result": 8}, {"measurement": "Plant response rating, Soybean", "setting": "soybean (Glycine max); Rate 62 g/ha, scale of 0 to 10", "result": 0}, {"measurement": "Soybean plant response rating", "setting": "soybean (Glycine max); Rate 62 g/ha", "result": 4}, {"measurement": "Soybean plant response rating", "setting": "soybean (Glycine max); Rate 125 g/ha", "result": 4}, {"measurement": "Plant response rating, Soybean", "setting": "soybean (Glycine max); Rate 125 g/ha", "result": 1}, {"measurement": "Plant response rating, Sugarbeets", "setting": "[10]; Rate 62 g/ha, scale of 0 to 10", "result": 9}, {"measurement": "Sugarbeets plant response rating", "setting": "[10]; Rate 62 g/ha", "result": 10}, {"measurement": "Sugarbeets plant response rating", "setting": "[10]; Rate 125 g/ha", "result": 10}, {"measurement": "Plant response rating, Sugarbeets", "setting": "[10]; Rate 125 g/ha", "result": 9}, {"measurement": "Velvetleaf plant response rating", "setting": "[11]; Rate 62 g/ha", "result": 8}, {"measurement": "Velvetleaf plant response rating", "setting": "[11]; Rate 125 g/ha", "result": 8}, {"measurement": "Plant response rating, Velvetleaf", "setting": "[11]; Rate 125 g/ha, Preemergence", "result": 8}, {"measurement": "Plant response rating, Wheat", "setting": "[12]; Rate 62 g/ha, scale of 0 to 10", "result": 1}, {"measurement": "Wheat plant response rating", "setting": "[12]; Rate 62 g/ha", "result": 3}, {"measurement": "Wheat plant response rating", "setting": "[12]; Rate 125 g/ha", "result": 4}, {"measurement": "Plant response rating, Wheat", "setting": "[12]; Rate 125 g/ha", "result": 1}, {"measurement": "Plant response rating, Wild oats", "setting": "wild oat (Avena fatua); Rate 62 g/ha, scale of 0 to 10", "result": 4}, {"measurement": "Wild oats plant response rating", "setting": "wild oat (Avena fatua); Rate 62 g/ha", "result": 3}, {"measurement": "Wild oats plant response rating", "setting": "wild oat (Avena fatua); Rate 125 g/ha", "result": 3}, {"measurement": "Plant response rating, Wild oats", "setting": "wild oat (Avena fatua); Rate 125 g/ha", "result": 7}, {"measurement": "Barnyardgrass plant response rating", "setting": "[13]; [16]", "result": 1}, {"measurement": "Barnyardgrass plant response rating", "setting": "[13]; [17]", "result": 2}, {"measurement": "Ducksalad plant response rating", "setting": "[14]; [16]", "result": 0}, {"measurement": "Ducksalad plant response rating", "setting": "[14]; [17]", "result": 1}, {"measurement": "Rice plant response rating", "setting": "rice (Oryza sativa); [16]", "result": 0}, {"measurement": "Rice plant response rating", "setting": "rice (Oryza sativa); [17]", "result": 2}, {"measurement": "S. Flatsedge plant response rating", "setting": "[15]; [16]", "result": 2}, {"measurement": "S. Flatsedge plant response rating", "setting": "[15]; [17]", "result": 4}]}]}
